Earlier results, collected in patent US11596693B2, “Antibody-drug conjugates and uses thereof” (priority 2019, dated 2023).
Square brackets hold non-standard residues; d marks the D form. Peptide text beside a SMILES is read from it. * marks the point of attachment. Dolaproine = CO[C@@H]([C@@H]1CCCN1)[C@@H](C)C(=O)O; Dil = CC[C@H](C)[C@H](NC)[C@@H](CC(=O)O)OC; X1 = C[C@@H](N*)[C@@H](O)c1ccccc1; NMeV = CN[C@H](C(=O)O)C(C)C

Assays:
[1] = system: human-derived cancer cell lines; conditions: read-out: median inhibitory concentration
many cells = conditions: for many cells

In the case of `COc1cccc2c1C(=O)c1c(O)c3c(c(O)c1C2=O)C[C@@](O)(C(=O)CO)C[C@@H]3O[C@H]1C[C@H](N)[C@H](O)[C@H](C)O1` [doxorubicins, Doxorubicin], the IC50 [1] is listed as 100 to 200 nM.
In the case of `COc1cc2cc(c1Cl)N(C)C(=O)CC(OC(=O)[C@H](C)N(C)C(=O)CCC(C)(C)S)C1(C)OC1C(C)C1CC(O)(NC(=O)O1)C(OC)/C=C/C=C(\C)C2` (stereo partly shown) [DM4], the IC50 (many cells) is given as roughly 0.001 nM.
For `CC[C@H](C)[C@@H]([C@@H](CC(=O)N1CCC[C@H]1[C@H](OC)[C@@H](C)C(=O)N[C@H](C)[C@@H](O)c1ccccc1)OC)N(C)C(=O)[C@@H](NC(=O)[C@@H](NC)C(C)C)C(C)C` [MMAE, Monomethyl auristatin E] (H-[NMeV]V[Dil][Dolaproine]-X1), the IC50 (many cells) is listed as 0.01 to 1 nM.
For `COc1cc2cc(c1Cl)N(C)C(=O)CC(OC(=O)[C@H](C)N(C)C(=O)CCS)C1(C)OC1C(C)C1CC(O)(NC(=O)O1)C(OC)/C=C/C=C(\C)C2` (stereo partly shown) [DM1], the IC50 (many cells) is given as roughly 0.01 nM.
